Data published in patent US7390910B2, “Compounds for treating tumors” (priority 2003, dated 2008).
Marks after values point to notes of the source that are not given here. *1 amine or outer side, *2 acyl side, *3 side chain or, on linkers, in order; H or OH if unused. Where a SMILES comes first, the peptide text is derived from it. [ ]: non-standard residue; d: D form. The star is where a group is joined. NMePhe(β,β-Me2) = CN[C@H](C(=O)O)C(C)(C)c1ccccc1; X1 = C/C(=C\[C@H](C(C)C)N(C)[*:1])C(=O)[*:2]; Tle = CC(C)(C)[C@H](N)C(=O)O; NHBn = c1ccc(CN*)cc1

Tests used:
[1] = system: bovine microtubule-associated protein (MAP)-rich tubulin; type: biochemical
Outline: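 MAP-rich bovine tubulin at 1.5 mg/ml final was dissolved in cold PEM buffer (80 mM Na-PIPES pH 6.9, 1 mM MgCl2, 1 mM EGTA) with 1 mM GTP, then centrifuged at 12,000×g for 10 min at 4° C. Aliquots of 100 μl were added quickly to a low-volume 96-well plate holding duplicate 10 μl compound samples. Absorbance at 340 nm was read each minute for 60 min at 24° C.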

KB cells = test: cells; type: cell-based; conditions: for IC50: 3 days, SRB
Protocol: (§1) Cell Survival Assay: Standard Pharmacological Test Procedure. […] Compounds are incubated with cells for 3 days.

KB85 = test: cells; type: cell-based; conditions: for IC50: 3 days, SRB
Protocol: as §1

KBV1 = test: cells; type: cell-based; conditions: for inhibition at 3 µM: KB-V1, 3000 nM; for IC50: 3 days, SRB
Protocol: as §1

Colo205 = test: Cell survival assay (SRB), Colo205; type: cell-based; conditions: Homo sapiens, COLO 205, 72 h, Colo205 cells, 3 days
Protocol: as §1

[2] = system: Human Melanoma Carcinoma Lox; test: Growth of tumors in nude mice (LOX xenograft); type: in vivo, athymic nu/nu female mice
Text: Growth of Tumors in Nude Mice. […] A p-value ≦0.05 indicates a statistically significant reduction in relative tumor growth of treated group compared to that of the vehicle control group.

| SMILES | Tubulin Polym. % inhibition at 0.3 uM [1] | IC50 (KB cells; Homo sapiens, KB, 72 h) | IC50 (KB85; 72 h) | inhibition at 3 µM (KBV1; Homo sapiens) | IC50 (Colo205) | IC50 (KBV1; Homo sapiens, KB-V1, 72 h) | also measured |
| --- | --- | --- | --- | --- | --- | --- | --- |
| C/C(=C\[C@H](C(C)C)N(C)C(=O)[C@@H](NC(=O)C(C(C)(C)c1ccccc1)S(C)(=O)=O)C(C)(C)C)C(=O)O (stereo partly drawn) [Example 103, (E,4S)-4-[((2S)-3,3-dimethyl-2-{[3-methyl-2-methylsulfonyl-3-phenylbutanoyl]amino}butanoyl)(methyl)amino]-2,5-dimethyl-2-hexenoic acid] | 80% | 1.75 µM | 1.66 µM | 5% | 0.76 µM | – | inhibition at 3 µM (KB85; 3000 nM): 30% |
| CO[C@@H](C(=O)N[C@H](C(=O)N(C)[C@H](/C=C(\C)C(=O)O)C(C)C)C(C)(C)C)C(C)(C)c1ccccc1 [Example 106, (E,4S)-4-[{N-[(2R)-2-methoxy-3-methyl-3-phenylbutanoyl]-3-methyl-L-valyl}(methyl)amino]-2,5-dimethyl-2-hexenoic acid] | 54% | 1.42 µM | 1.23 µM | 22% | 0.93 µM | – | – |
| CCOC(=O)/C(C)=C/[C@H](C(C)C)N(C)C(=O)[C@@H](NC(=O)C(OC)C(C)(C)c1ccccc1)C(C)(C)C (stereo partly drawn) [Example 104, Ethyl (E,4S)-4-[{(2S)-2-[(2-methoxy-3-methyl-3-phenylbutanoyl)amino]-3,3-dimethylbutanoyl}(methyl)amino]-2,5-dimethyl-2-hexenoate] | 38% | 1.73 µM | 2.13 µM | – | > 1 µM | 2.4 µM | IC50 (KB cells): 3 µM; IC50 (KB85): 3 µM; IC50 (KBV1): 3 µM |
| C/C(=C\[C@H](C(C)C)N(C)C(=O)[C@@H](NC(=O)C(Cc1ccccc1)C(C)(C)c1ccccc1)C(C)(C)C)C(=O)O (stereo partly drawn) [Example 96, (E,4S)-4-[((2S)-3,3-dimethyl-2-{[3-methyl-2-benzyl-3-phenylbutanoyl]amino}butanoyl)(methyl)amino]-2,5-dimethyl-2-hexenoic acid] | 46% | 0.846 µM | 1.12 µM | 11% | 0.34 µM | 2.63 µM | – |
| C=CCC(C(=O)N[C@H](C(=O)N(C)[C@H](/C=C(\C)C(=O)O)C(C)C)C(C)(C)C)C(C)(C)c1ccccc1 (stereo partly drawn) [Example 98, (E,4S)-4-[((2S)-3,3-dimethyl-2-{[3-methyl-2-allyl-3-phenylbutanoyl]amino}butanoyl)(methyl)amino]-2,5-dimethyl-2-hexenoic acid] | 63% | 1.15 µM | 1.21 µM | – | 0.27 µM | – | KBV1 % inhibition @6000 (KBV1): 42%@6000 |
| C/C(=C\[C@H](C(C)C)N(C)C(=O)[C@@H](NC(=O)[C@H](O)C(C)(C)c1ccccc1)C(C)(C)C)C(=O)O [Example 108, (E,4S)-4-[{N-[(2R)-2-hydroxy-3-methyl-3-phenylbutanoyl]-3-methyl-L-valyl}(methyl)amino]-2,5-dimethyl-2-hexenoic acid] | 21% | > 3 µM | > 3 µM | – | > 1 µM | > 3 µM | – |
| CN[C@H](C(=O)N[C@H](C(=O)N(C)[C@H](/C=C(\C)C(=O)N1CCC[C@H]1[C@H](OC)[C@@H](C)C(=O)N[C@@H](Cc1ccccc1)c1nccs1)C(C)C)C(C)(C)C)C(C)(C)c1ccccc1 [Example 29] | 62% | – | – | – | – | – | IC50 (KB cells): 0.00075 µM; IC50 (KB85): 0.0041 µM; IC50 (KBV1): 0.18 µM; % T/C on day 7 ([2]; 10 mg/kg IV on days 1, 5, 9): 14%; % T/C on day 9 ([2]; 10 mg/kg IV on days 1, 5, 9, day 9): 9% |
| CSC(C(=O)N[C@H](C(=O)N(C)[C@H](/C=C(\C)C(=O)O)C(C)C)C(C)(C)C)C(C)(C)c1ccccc1 (stereo partly drawn) [Example 102, (E,4S)-4-[((2S)-3,3-dimethyl-2-{[3-methyl-2-methylsulfanyl-3-phenylbutanoyl]amino}butanoyl)(methyl)amino]-2,5-dimethyl-2-hexenoic acid] | 79% | 0.693 µM | 1.15 µM | – | 0.28 µM | – | KBV1 % inhibition @6000 (KBV1): 40%@6000 |
| CN[C@H](C(=O)N[C@H](C(=O)N(C)[C@H](/C=C(\C)C(=O)N1CCC[C@H]1[C@H](OC)[C@@H](C)C(=O)OC)C(C)C)C(C)(C)C)C(C)(C)c1ccccc1 [Example 30, N,β,β-trimethyl-L-phenylalanyl-N^1-((1S,2E)-4-{(2S)-2-[(1R,2R)-1,3-dimethoxy-2-methyl-3-oxopropyl]pyrrolidin-1-yl}-1-isopropyl-3-methyl-4-oxobut-2-enyl)-N^1,3-dimethyl-L-valinamide] | 45% | 0.0033 µM | 0.006 µM | – | – | 0.096 µM | % T/C on day 7 ([2]; 5 mg/kg IV on days 1, 5, 9): 11%; % T/C on day 14 ([2]; 5 mg/kg IV on days 1, 5, 9, day 14): 3% |
| CN[C@H](C(=O)N[C@H](C(=O)N(C)[C@H](/C=C(\C)C(=O)NO)C(C)C)C(C)(C)C)C(C)(C)c1ccccc1 [Example 25, (E,4S)-4-[((2S)-3,3-dimethyl-2-{[(2S)-3-methyl-2-(methylamino)-3-phenylbutanoyl]amino}butanoyl)(methyl)amino]-N-hydroxy-2,5-dimethyl-2-hexenamide] | 75% | 0.039 µM | 0.227 µM | 7% | 0.02 µM | – | – |
| CN[C@H](C(=O)N[C@H](C(=O)N(C)[C@H](/C=C/c1nnn[nH]1)C(C)C)C(C)(C)C)C(C)(C)c1ccccc1 [Example 86, (2S)-N-[(1S,2E)-1-isopropyl-3-(1H-tetraazol-5-yl)-2-propenyl]-N,3,3-trimethyl-2-{[(2S)-3-methyl-2-(methylamino)-3-phenylbutanoyl]amino}butanamide] | 31% | 1.15 µM | 1.82 µM | 5% | 0.071 µM | – | – |
| C/C(=C\[C@H](C(C)C)N(C)C(=O)[C@@H](NC(=O)[C@@H](O)C(C)(C)c1ccccc1)C(C)(C)C)C(=O)O [Example 107, (E,4S)-4-[{N-[(2S)-2-hydroxy-3-methyl-3-phenylbutanoyl]-3-methyl-L-valyl}(methyl)amino]-2,5-dimethyl-2-hexenoic acid] | 21% | > 3 µM | > 3 µM | – | > 1 µM | > 3 µM | – |
| CCOC(=O)/C(C)=C/[C@H](C(C)C)N(C)C(=O)[C@@H](NC(=O)[C@@H](C)C(C)(C)c1ccccc1)C(C)(C)C [Example 91, Ethyl (E,4S)-4-[((2S)-2-{[(2S)-2,3-dimethyl-3-phenylbutanoyl]amino}-3,3-dimethylbutanoyl)(methyl)amino]-2,5-dimethyl-2-hexenoate] | – | – | > 3 µM | – | > 1 µM | > 3 µM | Tubulin Polym. % inhibition at 2 uM ([1]; 2 uM): 84**** %; inhibition at 3 µM (KB cells; Homo sapiens, 72 h, 3000 nM): 21% |
| CN[C@H](C(=O)N[C@H](C(=O)N(C)[C@H](/C=C(\C)C(=O)N1CCC[C@@H]1C(=O)N1CCC[C@@H]1C(=O)NCc1ccccc1)C(C)C)C(C)(C)C)C(C)(C)c1ccccc1 [Example 28, 1-{(2E,4S)-2,5-dimethyl-4-[methyl(N-methyl-3-phenyl-L-valyl-3-methyl-L-valyl)amino]hex-2-enoyl}-D-prolyl-N-benzyl-D-prolinamide] (H-[NMePhe(β,β-Me2)][Tle][X1][dP][dP]-NHBn) | 56(3) % | 0.00107 µM | 0.0219 µM | 14% | 0.00025 µM | – | % T/C on day 7 ([2]; 10 mg/kg IV on days 1, 5, 9): 10%; % T/C on day 10 ([2]; 10 mg/kg IV on days 1, 5, 9, day 10): 4% |
